Patent US11583507B2, “Direct AMPK activator compounds” (SOCIETE DES PRODUITS NESTLE S.A., priority 2018, dated 2023)

Tests used:
AMPK α2β2γ1 (221) = target: T1, AMPK α2β2γ1 (221) (Homo sapiens, UniProt O43741+P54619+P54646); experiment: AMPK in vitro activity assay (HTRF-KinEASE), β2-containing complex; type: biochemical; details: fold activation vs complex without compound
T1 construct: His; made in house; host or cells: bacteria
Protocol: (§1) Lusianthridin (CAS 87530-30-1) was isolated from Thunia alba fruit. It was sourced from Analyticon (NP-012362). The plant was purchased through Analyticon's biomaterial supplier in 2003. The country of origin is Nepal. The AMPK heterotrimers were expressed in bacteria and purified through the His-α subunit by nickel purification. AMPK complexes were purified through gel filtration and phosphorylated by incubation with CaMKKβ, and further purified with a final gel filtration purification step. Phosphorylated purified AMPK was incubated with varying concentrations of ligand for 30 mins using substrate and reagents from the HTRF-KinEASE Cisbio assay kit (STK S1 Kit). Phosphorylation of the substrate was measured by incubating with donor and acceptor antibodies for 2 h at room temperature as per the manufacturer's protocol (and Coulerie et al., (2016) PMID: 27792327) and phosphorylated peptide detected by performing HTRF. The 665 nm/620 nm ratio was determined and the results are plotted as fold activation compared to the respective AMPK complex without any compound.

[1] = system: AMPK β1 S108A mutant (phosphorylation of ACC); experiment: pACC (HTRF and western blot) in AMPKβ1/β2 double knockout U2-OS Flp-In T-Rex cells stably expressing β1 S108A mutant; type: cell-based, human
Text: (§2) AMPKβ1/β2 double knockout U2-OS Flp-In™ T-Rex™ cell lines were generated by Horizon Discovery (Cambridge, UK). Cells were genotyped and analysed by western blotting to confirm that there was a complete knockout of AMPKβ1/β2. We took these AMPKβ1/β2 double knockout cells, and re-introduced the expression of human β1 wild-type (WT) or a β1 Serine 108 to alanine mutation (S108A). This was achieved using the Flp-In™ system (Invitrogen) present in this cell line and stable cells expressing β1 WT or a β1 S108A mutant were generated according to the manufacturers' protocols. Re-expression of the β1 subunit was confirmed by western blot analysis.
(§3) Cells stably expressing β1 WT or a β1 S108A mutant were treated with varying concentrations of Lusianthridin and subjected to the pACC HTRF (Cisbio) assay or western blot analysis to determine phosphorylation of the AMPK substrate, ACC, in cells lysates. Western blots were quantified using the LI-COR odyssey system and shown as the ratio of the antibody signal from pACC divided by total ACC.

[2] = target: T2, AMPK α2β1γ1 R298G (211 R298G) mutant (Homo sapiens, UniProt P54619+P54646+Q9Y478, R299G); experiment: AMPK in vitro activity assay (HTRF-KinEASE), γ1 R298G mutant; type: biochemical; details: mutation in the γ1 AMP binding pocket
T2 construct: His; made in house; host or cells: bacteria
T2 sequence (P54646 whole entry): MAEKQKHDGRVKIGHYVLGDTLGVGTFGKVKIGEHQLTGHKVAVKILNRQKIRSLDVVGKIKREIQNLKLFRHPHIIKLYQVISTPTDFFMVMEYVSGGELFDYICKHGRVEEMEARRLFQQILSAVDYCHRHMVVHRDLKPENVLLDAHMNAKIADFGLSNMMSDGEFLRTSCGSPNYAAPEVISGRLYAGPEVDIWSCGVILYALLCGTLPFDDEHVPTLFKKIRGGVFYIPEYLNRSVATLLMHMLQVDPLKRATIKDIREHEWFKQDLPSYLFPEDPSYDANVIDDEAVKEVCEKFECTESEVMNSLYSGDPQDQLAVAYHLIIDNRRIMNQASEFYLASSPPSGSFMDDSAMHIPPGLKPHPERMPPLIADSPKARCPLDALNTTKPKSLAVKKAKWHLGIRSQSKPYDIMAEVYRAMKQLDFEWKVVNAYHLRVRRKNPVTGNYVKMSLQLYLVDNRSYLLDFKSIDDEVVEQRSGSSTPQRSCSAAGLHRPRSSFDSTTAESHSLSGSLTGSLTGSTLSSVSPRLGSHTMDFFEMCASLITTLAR
T2 sequence (Q9Y478 whole entry): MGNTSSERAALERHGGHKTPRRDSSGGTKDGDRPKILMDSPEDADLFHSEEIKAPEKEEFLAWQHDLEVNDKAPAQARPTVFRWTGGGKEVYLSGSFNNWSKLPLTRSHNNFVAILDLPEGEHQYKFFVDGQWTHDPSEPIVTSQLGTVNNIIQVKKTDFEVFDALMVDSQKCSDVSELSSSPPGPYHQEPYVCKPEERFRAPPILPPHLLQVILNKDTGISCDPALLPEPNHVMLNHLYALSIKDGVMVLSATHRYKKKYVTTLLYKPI
T2 sequence (P54619 whole entry R299G): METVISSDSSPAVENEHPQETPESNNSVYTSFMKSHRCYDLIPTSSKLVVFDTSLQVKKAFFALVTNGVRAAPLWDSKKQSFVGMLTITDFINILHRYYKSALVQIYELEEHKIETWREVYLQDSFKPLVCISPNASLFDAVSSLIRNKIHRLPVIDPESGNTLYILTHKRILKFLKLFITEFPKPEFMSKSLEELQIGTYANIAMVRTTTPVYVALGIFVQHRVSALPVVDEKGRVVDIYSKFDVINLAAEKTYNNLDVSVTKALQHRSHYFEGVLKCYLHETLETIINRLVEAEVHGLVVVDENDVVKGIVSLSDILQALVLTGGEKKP
Protocol: as §1

[3] = system: AMPK substrate, acetyl-CoA carboxylase (ACC); experiment: pACC HTRF assay in U2OS Flp-In T-REx cells; type: cell-based; details: 1 h, varying concentrations, dose-dependent
Protocol: (§4) U2OS Flp-In T-REx cells were seeded at 100 K in a 96-well plate and left overnight at 37 C in DMEM GlutaMAX (Thermo Fisher Scientific) supplemented with 10% (vol/vol) FBS and 100 U/ml penicillin G, and 100 μg/ml streptomycin. Cells were treated for 1 h with varying concentrations of Lusianthridin in media lacking FBS and then cells were lysed in 50 μl of Cisbio lysis buffer #1 supplemented with blocking solution as per the manufacturer's protocol (Cisbio). Cells were lysed for 30 mins at room temperature before 16 μl of lysate was incubated with 4 μl of the HTRF antibodies (1:40 dilution of the acceptor and donor (p)ACC antibodies, as per the manufacturers protocol). Lysates were incubated overnight with the antibodies before 665 nm/620 nm ratio was determined using a MolecularDevices i3 plate reader (with a HTRF cartridge add-on). For western blot analysis, SDS-sample buffer was added to the remainder of the lysate, denatured at 95 C and then subjected to western blot analysis with phospho-specific and total ACC antibodies (Cell Signalling). Bands were visualized by incubating with Li-Cor secondary antibody and scanned on a Li-Cor Odyssey machine.

AMPKα2β1γ1 (211) = target: T3, AMPKα2β1γ1 (211) (Homo sapiens, UniProt P54619+P54646+Q9Y478); experiment: AMPK in vitro activity assay (HTRF-KinEASE), phosphorylated bacterially-expressed complex; type: biochemical; details: fold activation vs complex without compound; 30 mins incubation
T3 construct: His; made in house; host or cells: bacteria
T3 sequence (P54646 whole entry): as the sequence (P54646 whole entry) above
T3 sequence (Q9Y478 whole entry): as the sequence (Q9Y478 whole entry) above
T3 sequence (P54619 whole entry): as the sequence (P54619 whole entry R299G) above, with G299R counted along it
Protocol: as §1

[4] = system: differentiated C2C12 cells; experiment: Glucose uptake (3H-2-deoxyglucose) into differentiated C2C12 cells; type: cell-based; details: Lusianthridin 100 μM for 4 h at 37 C
Protocol: C2C12 cells were maintained in DMEM GlutaMAX supplemented with 10% (vol/vol) FBS and 100 U/ml penicillin G, and 100 μg/ml streptomycin. C2C12 myoblasts were differentiated into myotubes by 7 days of culture in DMEM GlutaMAX supplemented with 2% (vol/vol) horse serum and antibiotics. Cells were transferred to serum-free media for 24 hours, before equilibrating with bicarbonate-free medium prior to treatment. Cells were treated with Control (DMSO 1% final concentration) or 100 μM Lusianthridin in the presence of ^3H-2-deoxyglucose (in Krebs-Hepes buffer containing sodium pyruvate). Cells were lysed and the quantity of ^3H determined in these samples using a scintillation counter.
Activation of AMPK in muscle cells has been previously shown to increase glucose uptake. […] Differentiated C2C12 cells were treated with either control or 100 μM Lusianthridin for 4 h at 37 C. Glucose uptake was determined by monitoring the uptake of ^3H-2-deoxyglucose into cells. […] This is consistent with the important role of AMPK in mediating glucose uptake in muscle.

[5] = system: AMPK substrate, acetyl-CoA carboxylase (ACC); experiment: Western blot of pACC / total ACC in U2OS Flp-In T-REx lysates; type: cell-based; details: varying concentrations
Protocol: as §4

AMPK substrate, ACC = experiment: pACC HTRF assay in mouse primary hepatocytes; type: cell-based; details: 1 h incubation at 37 C, dose-dependent
Protocol: Hepatocyte isolation: The liver was first perfused with 50 ml perfusion buffer (Krebs-Hepes buffer with […] EDTA), followed with 50 ml collagenase A buffer (Krebs-Hepes buffer with 5 mM CaCl2 and 0.5 mg/ml collagenase). […] Hepatocytes were left to attach (3-4 h) and cultured overnight in M199 supplemented with antibiotics and 100 nM dexamethasone. Cells were used for experiments the following morning. Primary hepatocytes were seeded at 15 K cells in a 96-well plate overnight. Cells were treated for 1 h with varying concentrations of Lusianthridin in media and then cells were lysed in 50 μl of Cisbio lysis buffer #1 supplemented with blocking solution as per the manufacturer's protocol (Cisbio). Cells were lysed for 30 mins at room temperature before 16 μl of lysate was incubated with 4 μl of the HTRF antibodies. Lysates were incubated overnight with the antibody before 665 nm/620 nm ratio was determined using a MolecularDevices i3 plate reader (with a HTRF cartridge add-on).

[6] = system: AMPK α2β1γ1 ΔCBM mutant (211 ΔCBM); experiment: AMPK in vitro activity assay (HTRF-KinEASE), ΔCBM mutant; type: biochemical; details: carbohydrate-binding module deleted
Protocol: as §1

[7] = system: AMPK β1 WT (phosphorylation of ACC); experiment: pACC (HTRF and western blot) in AMPKβ1/β2 double knockout U2-OS Flp-In T-Rex cells stably expressing β1 WT; type: cell-based, human
Text: as §2, §3

[8] = varying concentrations, 30 mins at 37 C

T1 sequence (P54646 whole entry): as the sequence (P54646 whole entry) above
T1 sequence (O43741 whole entry): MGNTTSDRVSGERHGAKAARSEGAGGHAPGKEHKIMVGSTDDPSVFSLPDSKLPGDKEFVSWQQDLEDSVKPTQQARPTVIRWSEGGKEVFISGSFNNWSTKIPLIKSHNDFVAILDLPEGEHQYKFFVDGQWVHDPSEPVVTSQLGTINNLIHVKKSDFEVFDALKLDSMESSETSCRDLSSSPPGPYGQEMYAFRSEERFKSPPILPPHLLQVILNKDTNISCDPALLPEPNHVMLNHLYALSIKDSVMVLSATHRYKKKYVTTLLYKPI
T1 sequence (P54619 whole entry): as the sequence (P54619 whole entry R299G) above, with G299R counted along it

COc1cc(O)c2c(c1)CCc1cc(O)ccc1-2 [Lusianthridin, 7-Methoxy-9,10-dihydrophenanthrene-2,5-diol]
activation of β2-containing AMPK complexes (α2β2γ1) (AMPK α2β2γ1 (221)): does not activate
phosphorylation of ACC (western blot) [1]: did not increase phosphorylation of ACC
pACC (HTRF assay) [1, 8]: did not increase pACC
activation of AMPK α2β1γ1 γ1 R298G mutant complexes [2]: still activates
phosphorylation of the AMPK substrate ACC (pACC HTRF) [3]: increases
activation of bacterially-expressed AMPKα2β1γ1 complexes (AMPKα2β1γ1 (211)): Activates
fold increase in glucose uptake relative to control [4]: ~2 fold
phosphorylation of ACC by western blot (AMPK activation in cells) [5]: activates AMPK in cells
phosphorylation of the AMPK substrate ACC (pACC HTRF) (AMPK substrate, ACC): increases
activation of α2β1γ1 ΔCBM mutant [6]: does not activate
pACC (HTRF and western blot, pACC/total ACC) ([7]; FIGS. 19 and 20): dose-dependently increase pACC
pACC (HTRF assay) [7, 8]: capable of activating
